The values below come from the PolyMetriX glass transition set.

In turn, `*C(=O)c1cc(C(=O)c2ccc3c(c2)C(=O)N(c2ccc(Oc4ccc(N5C(=O)c6ccc(*)cc6C5=O)cc4)cc2)C3=O)cc(C(C)(C)C)c1` (repeat unit) came in with a glass transition temperature of 252.50 °C.

`*C(=O)c1ccc(Oc2ccc(Oc3ccc(C(=O)c4ccc5c(c4)C(=O)N(c4ccc(Oc6ccc(N7C(=O)c8ccc(*)cc8C7=O)cc6)cc4)C5=O)cc3)cc2)cc1` (repeat unit): the glass transition temperature is 220.00 °C.

On to `*C(=O)c1ccc2c(c1)C(=O)N(c1ccc(Oc3ccc(N4C(=O)c5ccc(*)cc5C4=O)cc3Br)c(Br)c1)C2=O` (repeat unit), for which the glass transition temperature worked out at 296.00 °C. The result for `*C(=O)c1ccc2c(c1)C(=O)N(c1ccc(Oc3ccccc3N3C(=O)c4ccc(*)cc4C3=O)cc1)C2=O` (repeat unit) reads 282.50 °C; that for `*CCCCCCCCCCCN1C(=O)c2ccc(-c3ccc(-c4ccc5c(c4)C(=O)N(*)C5=O)cc3)cc2C1=O` (repeat unit), 89.00 °C; that for `*CCCCCCCCCCOc1ccc(/C=N/c2ccc(-c3ccc(/N=C/c4ccc(O*)cc4O)c(OC)c3)cc2OC)c(O)c1` (repeat unit), 72.00 °C. `*CCCCCCCCN1C(=O)c2ccc(-c3ccc(-c4ccc5c(c4)C(=O)N(*)C5=O)cc3)cc2C1=O` (repeat unit) had a glass transition temperature of 120.00 °C. The result for `*CCCCCCNC(=O)c1ccc(C(C)(CC)c2ccc(C(=O)N*)cc2)cc1` (repeat unit) reads 164.00 °C; that for `*CCCCCCNC(=O)c1ccc(C2(C)CC(C)(C)c3ccc(C(=O)N*)cc32)cc1` (repeat unit), 190.00 °C; that for `*CCCCCCOC(=O)c1cc(/N=N/c2ccc(OCC)cc2)ccc1-c1ccc(/N=N/c2ccc(OCC)cc2)cc1C(=O)O*` (repeat unit), 83.00 °C. Regarding `*CCCCCCn1ccc(-c2ccc(-c3ccn(*)n3)cc2)n1` (repeat unit), the glass transition temperature stood at 55.00 °C. The result for `*CCCOC(=O)c1cc(/N=N/c2ccc(OCC)cc2)ccc1-c1ccc(/N=N/c2ccc(OCC)cc2)cc1C(=O)O*` (repeat unit) reads 101.00 °C; that for `*CCNC(=O)c1ccc([Si](C)(C)c2ccc(C(=O)NCCN(*)c3ccc(/C=C/c4ccc([N+](=O)[O-])cc4)cc3)cc2)cc1` (repeat unit), 150.00 °C; that for `*CCOC(=O)c1ccc(C2(C)CC(C)(C)c3ccc(C(=O)O*)cc32)cc1` (repeat unit), 154.00 °C. The result for `*CCOCCOCCOC(=O)c1cc(/N=N/c2ccc(OCC)cc2)ccc1-c1ccc(/N=N/c2ccc(OCC)cc2)cc1C(=O)O*` (repeat unit) reads 65.00 °C. `*Nc1ccc(C(=O)Nc2ccc(Cc3ccc(NC(=O)c4ccc(NC(=O)c5ccc([Si](C)(C)c6ccc(C(*)=O)cc6)cc5)cc4)cc3)cc2)cc1` (repeat unit) had a glass transition temperature of 300.00 °C. The result for `*Nc1ccc(NC(=O)c2ccc(C(c3ccc(C(*)=O)c(C(=O)OCC)c3)(C(F)(F)F)C(F)(F)F)cc2C(=O)OCC)cc1` (repeat unit) reads 270.00 °C. Compound `*OC(=O)c1ccc(C2(C)CC(C)(C)c3ccc(C(=O)Oc4ccc5c(c4)Oc4cc(*)ccc4C5(C)C)cc32)cc1` (repeat unit) gave a glass transition temperature of 297.00 °C. Compound `*Oc1ccc(-c2ccc(Oc3ccc(-c4ccc(-c5ccc(*)c(C(F)(F)F)c5)cc4)cc3C(F)(F)F)cc2)cc1` (repeat unit) yielded a glass transition temperature of 203.50 °C. The result for `*Oc1ccc(C(C)(C)c2ccc(OC(=O)c3ccc4c(c3)C(C)(c3ccc(C(*)=O)cc3)CC4(C)C)cc2)cc1` (repeat unit) reads 265.00 °C; that for `*Oc1ccc(NC(=O)c2ccc(NC(=O)c3ccc([Si](C)(C)c4ccc(C(=O)Nc5ccc(C(=O)Nc6ccc(*)cc6)cc5)cc4)cc3)cc2)cc1` (repeat unit), 304.00 °C; that for `*Oc1ccc(OC(=O)c2cc(/N=N/c3ccc(OCC)cc3)ccc2-c2ccc(/N=N/c3ccc(OCC)cc3)cc2C(*)=O)cc1` (repeat unit), 170.00 °C.

`*Oc1ccc(OC(=O)c2ccc(C(C)(C)c3ccc(C(*)=O)cc3)cc2)cc1` (repeat unit) returned a glass transition temperature of 195.00 °C. The result for `*Oc1ccc(Oc2ccc(NC(=O)c3ccc(-c4ccc(C(=O)Nc5ccc(*)cc5)c(C)c4)cc3C)cc2)cc1` (repeat unit) reads 219.00 °C; that for `*Oc1ccc(S(=O)(=O)c2ccc(Oc3ccc(NC(=O)c4ccc(-c5ccc(C(=O)Nc6ccc(*)cc6)c(C)c5)cc4C)cc3)cc2)cc1` (repeat unit), 251.00 °C; that for `*Oc1cccc(OC(=O)c2ccc(C(C)(C)c3ccc(C(*)=O)cc3)cc2)c1` (repeat unit), 158.00 °C. The result for `*Oc1cccc(OC(=O)c2ccc([Si](C)(C)c3ccc(C(*)=O)cc3)cc2)c1` (repeat unit) reads 134.00 °C. For `*c1ccc(-c2cc(-c3ccc(OCCCC#N)cc3)cc(-c3ccc(-n4c(=O)c5cc6c(=O)n(*)c(=O)c6cc5c4=O)cc3)n2)cc1` (repeat unit), the glass transition temperature came out at 345.00 °C. Regarding `*c1ccc(-c2cc(-c3ccc(OCCCCCC)cc3)cc(-c3ccc(-c4ccc5c(c4)C(CCCCCC)(CCCCCC)c4cc(*)ccc4-5)cc3)c2-c2ccc(OCCCCCC)cc2)cc1` (repeat unit), the glass transition temperature came out at 118.00 °C. `*c1ccc(-c2cc(-c3ccc(OCCCCCCCCCCCC)cc3)cc(-c3ccc(-c4ccc5c(c4)C(CCCCCC)(CCCCCC)c4cc(*)ccc4-5)cc3)c2-c2ccc(OCCCCCCCCCCCC)cc2)cc1` (repeat unit): the glass transition temperature amounted to 79.00 °C. The result for `*c1ccc(-c2cc(CCCCCC)c(-c3ccc(-c4ccc5ccc6ccc(*)nc6c5n4)cc3)cc2CCCCCC)cc1` (repeat unit) reads 190.00 °C; that for `*c1ccc(-c2ccc(N3C(=O)c4ccc(-c5cccc6c5C(=O)N(*)C6=O)cc4C3=O)cc2C)c(C)c1` (repeat unit), 372.00 °C. Consider `*c1ccc(-c2ccc([Si](C)(C)[Si](*)(C)C)s2)s1` (repeat unit), for which the glass transition temperature was found to be 45.00 °C. The result for `*c1ccc(-c2ccc3c(c2)C(CCCCCCCC)(CCCCCCCC)c2cc(*)ccc2-3)cc1` (repeat unit) reads 81.00 °C; that for `*c1ccc(-c2cnc3cc4ncc(*)nc4cc3n2)cc1` (repeat unit), 392.00 °C; that for `*c1ccc(-c2nc3cc4nc(*)c(-c5ccccc5)nc4cc3nc2-c2ccccc2)cc1` (repeat unit), 395.00 °C. For `*c1ccc(-c2nc3ccc(-c4ccc5nc(*)c(-c6ccccc6)c(-c6ccccc6)c5c4)cc3c(-c3ccccc3)c2-c2ccccc2)cc1` (repeat unit), the glass transition temperature came to 400.00 °C. As to `*c1ccc(-c2nnc(*)o2)c(OCC)c1` (repeat unit), the glass transition temperature is 231.00 °C. The result for `*c1ccc(-c2nnc(*)o2)c(OCCCCCCCCCC)c1` (repeat unit) reads 165.00 °C. Consider `*c1ccc(-c2sc(-c3cc(CCCCCCCC)c(*)s3)cc2CCCCCCCC)cc1` (repeat unit), for which the glass transition temperature is 50.40 °C. The result for `*c1ccc(-c2sc(-c3cc(SCCCC)c(*)s3)cc2SCCCC)cc1` (repeat unit) reads 129.00 °C; that for `*c1ccc(-c2sc(-c3cc(SCCCCCCCC)c(*)s3)cc2SCCCCCCCC)cc1` (repeat unit), 55.30 °C. Compound `*c1ccc(-c2sc(-c3ccc(-c4cc(CCCC)c(*)s4)cc3)cc2CCCC)cc1` (repeat unit) yielded a glass transition temperature of 58.30 °C. The compound `*c1ccc(-c2sc(-c3ccc(-c4cc(SCCCC)c(*)s4)cc3)cc2SCCCC)cc1` (repeat unit) returned a glass transition temperature of 26.40 °C. As to `*c1ccc(-n2c(=O)c3cc4c(=O)n(*)c(=O)c4cc3c2=O)cc1` (repeat unit), the glass transition temperature was 417.00 °C. The result for `*c1ccc(/C=N/c2ccc(C(c3ccccc3)c3ccc(/N=C/c4ccc(-c5ccc(*)s5)cc4)cc3)cc2)cc1` (repeat unit) reads 129.00 °C; that for `*c1ccc(C(C#N)(C(=O)OC)C(*)(C#N)C(=O)OC)cc1` (repeat unit), 108.00 °C; that for `*c1ccc(C(c2ccc(-c3nc4ccc(-c5ccc6nc(*)[nH]c6c5)cc4[nH]3)cc2)(C(F)(F)F)C(F)(F)F)cc1` (repeat unit), 269.00 °C. The result for `*c1ccc(C(c2ccccc2)(c2ccc(-c3nc4ccc(-c5ccc6nc(*)oc6c5)cc4o3)cc2)C(F)(F)F)cc1` (repeat unit) reads 350.00 °C; that for `*c1ccc(N(c2ccc(C#N)cc2)c2ccc(-n3c(=O)c4cc5c(=O)n(*)c(=O)c5cc4c3=O)cc2)cc1` (repeat unit), 353.00 °C. `*c1ccc(NC(=O)c2ccc(NC(=O)c3ccc([Si](C)(C)c4ccc(C(=O)Nc5ccc(C(=O)Nc6ccc(S(*)(=O)=O)cc6)cc5)cc4)cc3)cc2)cc1` (repeat unit) yielded a glass transition temperature of 315.00 °C. The compound `*c1ccc([Si](c2ccccc2)(c2ccccc2)c2ccc(-c3nnc(-c4ccc(-c5nnc(*)o5)nc4)o3)cc2)cc1` (repeat unit) had a glass transition temperature of 272.00 °C. On to `*c1ccc([Si](c2ccccc2)(c2ccccc2)c2ccc(-c3nnc(-c4ccc(-c5nnc(*)o5)o4)o3)cc2)cc1` (repeat unit), for which the glass transition temperature was 276.00 °C. `*c1ccc([Si](c2ccccc2)(c2ccccc2)c2ccc(-c3nnc(-c4cccc(-c5nnc(*)o5)n4)o3)cc2)cc1` (repeat unit) gave a glass transition temperature of 265.00 °C.

On to `*c1ccc([Si](c2ccccc2)(c2ccccc2)c2ccc(-c3nnc(-c4cncc(-c5nnc(*)o5)c4)o3)cc2)cc1` (repeat unit), for which the glass transition temperature stood at 272.00 °C.

`*c1cccc(Cc2cccc(N3C(=O)c4ccc([Si](C)(C)c5ccc(-c6ccc([Si](C)(C)c7ccc8c(c7)C(=O)N(*)C8=O)cc6)cc5)cc4C3=O)c2)c1` (repeat unit) had a glass transition temperature of 285.00 °C. Regarding `*c1cccc(NC(=O)c2ccc(-c3ccc(C(=O)Nc4cccc(S(*)(=O)=O)c4)c(C)c3)cc2C)c1` (repeat unit), the glass transition temperature worked out at 260.00 °C.
